A short description of series [1]: Oral clearance of SPP100 following single oral dose of SPP100 600 mg capsule studied in healthy human. It counts as ADME, organism-based. The following applies: plasma.
Another series addresses CYP2C19 (Homo sapiens, UniProt P33261). Briefly: Inhibitory activity of 200 uM SPP100 on 1375 Pmoles of cDNA-derived CYP2C19 enzyme in microsome prepared from human lymphoblastoid cell line. It counts as ADME, microsomes. Further details: conc 200 uM, interact cpd conc 50 uM. Conditions: probe (S)-mephenytoin (50 uM).
The nature of series [2]: % SPP100 in faeces following single oral dose of 300 mg [14C]SPP100 studied in healthy men. It is filed as ADME, organism-based, Feces. The following applies: human, in vivo, at 300 mg.
The nature of series [3]: Concentration of radioactivity in the liver following repeated oral administration of [14C] aliskiren hemifumarate at 100 mg.Kg-1 level studied at 24h after 3rd dose in rat. The following applies: in vivo. It is filed as ADME, organism-based, Albino HAN:WIST.
A short description of series [4]: Concentration of radioactivity in the liver following repeated oral administration of [14C] aliskiren hemifumarate at 100 mg.Kg-1 level studied at 2h after 3rd dose in rat. It is filed as ADME, organism-based, Albino HAN:WIST. The following applies: in vivo.
The nature of series [5]: Excretion of radioactivity (0-96h) in urine following single oral dose of 100 mg.Kg-1 [14C] aliskiren hemifumarate in rat. It is filed as ADME, organism-based, Albino HAN:WIST. The following applies: in vivo.
A short description of series [6]: Cmax normalised (0-168h) of total radioactivity following single oral administration of [14C] aliskiren hemifumarate at 3 mg.Kg-1 level in marmoset. It counts as ADME, organism-based, Callithrix jacchus, Plasma. The following applies: in vivo.
A short description of series [7]: Excretion (24h) of radioactivity in urine following intravenous administration of [14C] aliskiren hemifumarate at 10 mg.Kg-1 level in rat. It counts as ADME, organism-based, Lister-Hooded. Conditions: in vivo.
A further series has as its target T1, Cytochrome P450 4F3 (Homo sapiens, UniProt Q08477).
T1 sequence (Q08477 whole entry): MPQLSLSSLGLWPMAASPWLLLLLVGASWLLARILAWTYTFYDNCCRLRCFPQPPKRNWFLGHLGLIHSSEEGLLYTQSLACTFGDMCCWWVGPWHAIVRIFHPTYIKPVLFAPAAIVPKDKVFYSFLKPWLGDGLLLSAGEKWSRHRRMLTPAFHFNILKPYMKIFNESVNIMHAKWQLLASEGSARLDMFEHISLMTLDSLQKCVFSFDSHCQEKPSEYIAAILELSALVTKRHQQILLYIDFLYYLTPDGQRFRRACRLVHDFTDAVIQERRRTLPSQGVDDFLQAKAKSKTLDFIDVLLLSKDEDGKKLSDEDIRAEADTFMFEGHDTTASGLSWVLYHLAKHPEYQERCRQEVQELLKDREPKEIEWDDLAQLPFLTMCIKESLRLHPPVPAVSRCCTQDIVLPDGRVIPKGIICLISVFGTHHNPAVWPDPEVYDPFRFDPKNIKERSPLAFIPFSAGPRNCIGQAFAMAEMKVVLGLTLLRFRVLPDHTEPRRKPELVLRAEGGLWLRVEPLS
As to the kind of experiment: Metabolic clearance (ul.min.nmol-1 CYP) of aliskiren hemifumarate for CYP4F3B was determined in human liver microsome incubated with [14C]SPP100 hemifumarate. It counts as ADME. Conditions: microsomes. (Liver microsomes are a subcellular fraction often used to study metabolism.)

Series [8] is described as follows: Excretion of radioactivity (0-72h) in urine following single oral dose of 500 mg.Kg-1 [14C] aliskiren hemifumarate in mouse. It counts as ADME, organism-based, TgRasH2. Conditions: in vivo.
A short description of series [9]: Mean excretion of radioactivity (48-72h) in urine and faeces following single oral dose of 100 mg.Kg-1 [14C] aliskiren hemifumarate in rat. It counts as ADME, organism-based, Albino HAN:WIST, Urine/Feces. Conditions: in vivo.
A short description of series [10]: Excretion of radioactivity (0-96h) in faeces following single intravenous dose of 10 mg.Kg-1 [14C] aliskiren hemifumarate in rat. It is filed as ADME, organism-based, Albino HAN:WIST, Feces. The following applies: in vivo.
Series [11] can be described thus: Excretion (0-168h) of radioactivity in faeces following intravenous administration of [14C] aliskiren hemifumarate at 1 mg.Kg-1 level in marmoset. It is filed as ADME, organism-based, Callithrix jacchus, Feces. Conditions: in vivo.
The nature of series [12]: Total excretion of radioactivity following intravenous administration of [14C] aliskiren hemifumarate at 1 mg.Kg-1 level in marmoset. The following applies: in vivo. It is filed as ADME, organism-based, Callithrix jacchus, Urine/Feces.
Series [13] in a line: Effect of 4 week oral dietary dosing of aliskiren hemifumarate at 2000 mg.Kg-1 level on spermatogenesis in male mouse. It counts as toxicity, organism-based, CB6F1-TGrasH2, Testis. The following applies: in vivo, 672 h.
A short description of series [14]: AUC (0-24h) of aliskiren hemifumarate following 4 week oral dietary dosing of aliskiren hemifumarate at 1500 mg.Kg-1 level in female mouse. It counts as ADME, organism-based. Conditions: CB6F1-TGrasH2, mouse, plasma.
A short description of series [15]: Cmax (0-96h) of unlabeled aliskiren hemifumarate following intravenous administration of aliskiren hemifumarate at 10 mg.Kg-1 level in rat. It is filed as ADME, organism-based. The following applies: Albino HAN:WIST, plasma.
The nature of series [16]: Cmax (0-96h) of unlabeled aliskiren hemifumarate following oral administration of aliskiren hemifumarate at 100 mg.Kg-1 level in rat. Conditions: Albino HAN:WIST, plasma. It is filed as ADME, organism-based.
Series [17] in a line: Cmaxspec of aliskiren hemifumarate following 2 week oral dosing of aliskiren hemifumarate at 50 mg.Kg-1 level studied on day 14 in female Callithrix jacchus. It is filed as ADME, organism-based, Plasma. The following applies: marmoset, in vivo, 336 h.
A short description of series [18]: Plasma clearance (0-96h) of unlabeled aliskiren hemifumarate following intravenous administration of aliskiren hemifumarate at 10 mg.Kg-1 level in rat. The following applies: in vivo. It is filed as ADME, organism-based, Albino HAN:WIST.
A short description of series [19]: Effect of 4 week oral dietary dosing of aliskiren hemifumarate at 2000 mg.Kg-1 level on histopathology of corpora lutea in female mouse. It is filed as toxicity, organism-based, CB6F1-TGrasH2, Corpus luteum. The following applies: in vivo, 672 h.
A short description of series [20]: AUC(0-24h) of aliskiren hemifumarate following 2 week oral dosing of aliskiren hemifumarate at 50 mg.Kg-1 level studied on day 1 in female Callithrix jacchus. It is filed as ADME, organism-based. Conditions: marmoset, plasma.
Series [21] is described as follows: AUC/dose (0-168h) of unlabeled aliskiren hemifumarate following single intravenous administration of aliskiren hemifumarate at 1 mg.Kg-1 level in marmoset. It counts as ADME, organism-based, Callithrix jacchus, Plasma. Conditions: in vivo.
Series [22] is described as follows: Cmax of aliskiren hemifumarate following 8 day once-daily dosing of SPP100B oral solution at 80 mg level studied on day 8 in men. The following applies: male, human, plasma. It counts as ADME, organism-based.
A short description of series [23]: AUC infinity of aliskiren hemifumarate following 2 week oral dosing of aliskiren hemifumarate at 50 mg.Kg-1 level studied on day 1 in male Callithrix jacchus. It is filed as ADME, organism-based. Conditions: marmoset, plasma, read-out: AUC infinity.
Series [24] in a line: Tmax of aliskiren hemifumarate following 4 week oral dietary dosing of aliskiren hemifumarate at 1500 mg.Kg-1 level in female mouse. It counts as ADME, organism-based. Conditions: CB6F1-TGrasH2, mouse, in vivo.
The nature of series [25]: Cmax of aliskiren hemifumarate following 2 week oral dosing of aliskiren hemifumarate at 100 mg.Kg-1 level studied on day 1 in female Callithrix jacchus. It is filed as ADME, organism-based. The following applies: marmoset, plasma.
Series [26] is described as follows: Cmax of aliskiren hemifumarate following 2 week oral dosing of aliskiren hemifumarate at 10 mg.Kg-1 level studied on day 14 in female Callithrix jacchus. The following applies: marmoset, plasma. It is filed as ADME, organism-based.
Series [27] is described as follows: AUCspec of aliskiren hemifumarate following 2 week oral dosing of aliskiren hemifumarate at 50 mg.Kg-1 level studied on day 14 in male Callithrix jacchus. It is filed as ADME, organism-based, Plasma. The following applies: marmoset, in vivo, 336 h.
The nature of series [28]: Cmax of aliskiren hemifumarate following 2 week oral dosing of aliskiren hemifumarate at 100 mg.Kg-1 level studied on day 1 in male Callithrix jacchus. The following applies: marmoset, plasma. It counts as ADME, organism-based.
Series [29] in a line: Effect of 2 week oral dosing of aliskiren hemifumarate at 100 mg.Kg-1 level on plasma magnesium level in male Callithrix jacchus. It is filed as toxicity, organism-based. Conditions: marmoset, 336 h.
Series [30] can be described thus: Effect of 2 week oral dosing of aliskiren hemifumarate at 50 mg.Kg-1 level on plasma magnesium level in male Callithrix jacchus. It counts as toxicity, organism-based. The following applies: marmoset, 336 h.
Series [31] is described as follows: Effect of 2 week oral dosing of aliskiren hemifumarate at 100 mg.Kg-1 level on hematological parameter values in male Callithrix jacchus. It counts as toxicity, organism-based, Plasma. Conditions: marmoset, in vivo, 336 h.
Series [32] in a line: Effect of 2 week oral dosing of aliskiren hemifumarate at 10 mg.Kg-1 level on blood urea nitrogen level in male Callithrix jacchus. The following applies: marmoset, 336 h. It is filed as toxicity, organism-based, Plasma.

Structures are written as SMILES.

CYP2C19, sequence (P33261 whole entry): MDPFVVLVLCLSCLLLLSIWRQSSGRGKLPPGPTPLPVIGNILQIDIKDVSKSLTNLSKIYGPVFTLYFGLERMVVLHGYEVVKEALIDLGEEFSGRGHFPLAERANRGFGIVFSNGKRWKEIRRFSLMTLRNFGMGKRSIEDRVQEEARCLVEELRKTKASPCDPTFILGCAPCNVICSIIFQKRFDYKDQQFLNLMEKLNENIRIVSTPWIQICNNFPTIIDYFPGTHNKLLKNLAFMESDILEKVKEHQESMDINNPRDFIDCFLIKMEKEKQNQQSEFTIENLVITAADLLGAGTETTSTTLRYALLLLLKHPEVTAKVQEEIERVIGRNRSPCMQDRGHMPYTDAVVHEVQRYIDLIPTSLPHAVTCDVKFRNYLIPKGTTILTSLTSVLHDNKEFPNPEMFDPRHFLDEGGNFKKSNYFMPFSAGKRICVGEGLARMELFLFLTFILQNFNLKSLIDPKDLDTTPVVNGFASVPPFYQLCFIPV

As for `COCCCOc1cc(C[C@@H](C[C@H](N)[C@@H](O)C[C@H](C(=O)NCC(C)(C)C(N)=O)C(C)C)C(C)C)ccc1OC`, in [1], the CL/F (in general, the apparent clearance, not corrected for the fraction that reaches the circulation) was 3700 mL/min. Besides, the inhibition – broadly, the drop in the measured response relative to a control, in per cent – at 200 µM against CYP2C19 was -15.4%. Besides, the Compound recovery in series [2] turned out to be 77.5%.
On to `COCCCOc1cc(C[C@@H](C[C@H](N)[C@@H](O)C[C@H](C(=O)NCC([14CH3])([14CH3])C(N)=O)C(C)C)C(C)C)ccc1OC.O=C(O)/C=C/C(=O)O`, for which the Radiolabel recovery result in [3] is listed as “OUTCOME = Detected”; in [4], “OUTCOME = Detected”; in series [5], 0.69%; in series [7] it was 10%; in series [8], 1.84%; in [9] it was 16.3%. In addition, the Radiolabel recovery in series [10] is 90%; in [11], 72%; in [12], 83.1%. Moreover, the Cmax normalised in series [6] was 0.12 (umol/L)/(mg/kg). In addition, the CL at Cytochrome P450 4F3 amounted to 24 µL·min/nmol.
Take `COCCCOc1cc(C[C@@H](C[C@H](N)[C@@H](O)C[C@H](C(=O)NCC(C)(C)C(N)=O)C(C)C)C(C)C)ccc1OC.COCCCOc1cc(C[C@@H](C[C@H](N)[C@@H](O)C[C@H](C(=O)NCC(C)(C)C(N)=O)C(C)C)C(C)C)ccc1OC.O=C(O)/C=C/C(=O)O` [ALISKIREN FUMARATE]: the Change in spermatogenesis result in [13] is “OUTCOME = No abnormalities. No animals died during the study”. Besides, the AUC(0-t) (usually exposure summed from dosing to a finite time, without extrapolation to infinity) at 24 h in series [14] is 5470 ng·h/mL; in series [20], 56200 ng·h/mL. For the same compound, the Cmax (in general, the maximum level reached in the sampled fluid or tissue) in series [15] stood at 29.2 µM; in series [16], 0.27 µM; in series [22] it was 12.7 ng/mL; in series [25] it was 7940 ng/mL; in series [26], 6730 ng/mL; in series [28] it was 7200 ng/mL. In series [17], the Cmax normalised is 0.202 (ug/ml)/(mg/kg). The same compound returned a Plasma clearance in series [18] of 1.2 L·h/kg. The “Change in corpora lutea” value in series [19] is “OUTCOME = Absence of corpora lutea. No animals died during the study”. Further, the AUC normalised is on record as 49 (umol.h/L)/(mg/kg) in series [21] and 2.14 ((ug.h.ml-1)/(mg/kg) in series [27]. Further, the AUC(0-inf) in series [23] turned out to be 64000 ng·h/mL. In addition, the Tmax (commonly the time from dosing to the highest level) in [24] was determined as 30 min. The “Plasma magnesium_CHANGE_BY” value in [29] and in series [30] was 130% each time. The Change in hematology result in [31] was “OUTCOME = Hematological parameter values did not differ from control values. No animals died during the study”. This compound displayed a BUN_CHANGE_BY in series [32] of 5%.

The values are drawn from ChEMBL document CHEMBL3508693 (2016).
